Reference: patent publication US20220175768A1, “FGFR TYROSINE KINASE INHIBITORS FOR THE TREATMENT OF UROTHELIAL CARCINOMA” (Janssen Pharmaceutica NV, priority 2019, published 2022)

Details: 6 mg continuous, regimen 2 (n = 78)

## COc1cc(OC)cc(N(CCNC(C)C)c2ccc3ncc(-c4cnn(C)c4)nc3c2)c1 [erdafitinib, N-(3,5-dimethoxy-phenyl)-N′-(1-methylethyl)-N-[3-(1-methyl-1H-pyrazol-4-yl)quinoxalin-6-yl]ethane-1,2-diamine]
  Patients with Abdominal pain, Any grade: 14 (18) no. (%)
  Patients with Abdominal pain, Grade 1: 7 (9) no. (%)
  Patients with Abdominal pain, Grade 2: 5 (6) no. (%)
  Patients with Abdominal pain, Grade ≥3: 2 (3) no. (%)
  Patients with Alanine aminotransferase increased, Any grade: 9 (12) no. (%)
  Patients with Alanine aminotransferase increased, Grade 1: 7 (9) no. (%)
  Patients with Alanine aminotransferase increased, Grade 2: 2 (3) no. (%)
  Patients with Alanine aminotransferase increased, Grade ≥3: 0 no. (%)
  Patients with Alopecia, Any grade: 10 (13) no. (%)
  Patients with Alopecia, Grade 1: 9 (12) no. (%)
  Patients with Alopecia, Grade 2: 1 (1) no. (%)
  Patients with Alopecia, Grade ≥3: 0 no. (%)
  Patients with Anemia, Any grade: 13 (17) no. (%)
  Patients with Anemia, Grade 1: 0 no. (%)
  Patients with Anemia, Grade 2: 8 (10) no. (%)
  Patients with Anemia, Grade ≥3: 5 (6) no. (%)
  Patients with Arthralgia, Any grade: 8 (10) no. (%)
  Patients with Arthralgia, Grade 1: 5 (6) no. (%)
  Patients with Arthralgia, Grade 2: 2 (3) no. (%)
  Patients with Arthralgia, Grade ≥3: 1 (1) no. (%)
  Patients with Aspartate aminotransferase increased, Any grade: 9 (12) no. (%)
  Patients with Aspartate aminotransferase increased, Grade 1: 7 (9) no. (%)
  Patients with Aspartate aminotransferase increased, Grade 2: 2 (3) no. (%)
  Patients with Aspartate aminotransferase increased, Grade ≥3: 0 no. (%)
  Patients with Asthenia, Any grade: 18 (23) no. (%)
  Patients with Asthenia, Grade 1: 5 (6) no. (%)
  Patients with Asthenia, Grade 2: 4 (5) no. (%)
  Patients with Asthenia, Grade ≥3: 9 (12) no. (%)
  Patients with Back pain, Any grade: 11 (14) no. (%)
  Patients with Back pain, Grade 1: 6 (8) no. (%)
  Patients with Back pain, Grade 2: 3 (4) no. (%)
  Patients with Back pain, Grade ≥3: 2 (3) no. (%)
  Patients with Blood creatinine increased, Any grade: 6 (8) no. (%)
  Patients with Blood creatinine increased, Grade 1: 3 (4) no. (%)
  Patients with Blood creatinine increased, Grade 2: 3 (4) no. (%)
  Patients with Blood creatinine increased, Grade ≥3: 0 no. (%)
  Patients with Conjunctivitis, Any grade: 7 (9) no. (%)
  Patients with Conjunctivitis, Grade 1: 4 (5) no. (%)
  Patients with Conjunctivitis, Grade 2: 2 (3) no. (%)
  Patients with Conjunctivitis, Grade ≥3: 1 (1) no. (%)
  Patients with Constipation, Any grade: 20 (26) no. (%)
  Patients with Constipation, Grade 1: 10 (13) no. (%)
  Patients with Constipation, Grade 2: 10 (13) no. (%)
  Patients with Constipation, Grade ≥3: 0 no. (%)
  Patients with Decreased appetite, Any grade: 29 (37) no. (%)
  Patients with Decreased appetite, Grade 1: 12 (15) no. (%)
  Patients with Decreased appetite, Grade 2: 13 (17) no. (%)
  Patients with Decreased appetite, Grade ≥3: 4 (5) no. (%)
  Patients with Diarrhea, Any grade: 39 (50) no. (%)
  Patients with Diarrhea, Grade 1: 24 (31) no. (%)
  Patients with Diarrhea, Grade 2: 15 (19) no. (%)
  Patients with Diarrhea, Grade ≥3: 0 no. (%)
  Patients with Dry eye, Any grade: 6 (8) no. (%)
  Patients with Dry eye, Grade 1: 3 (4) no. (%)
  Patients with Dry eye, Grade 2: 2 (3) no. (%)
  Patients with Dry eye, Grade ≥3: 1 (1) no. (%)
  Patients with Dry mouth, Any grade: 31 (40) no. (%)
  Patients with Dry mouth, Grade 1: 23 (30) no. (%)
  Patients with Dry mouth, Grade 2: 6 (8) no. (%)
  Patients with Dry mouth, Grade ≥3: 2 (3) no. (%)
  Patients with Dry skin, Any grade: 18 (23) no. (%)
  Patients with Dry skin, Grade 1: 10 (13) no. (%)
  Patients with Dry skin, Grade 2: 8 (10) no. (%)
  Patients with Dry skin, Grade ≥3: 0 no. (%)
  Patients with Dysgeusia, Any grade: 10 (13) no. (%)
  Patients with Dysgeusia, Grade 1: 6 (8) no. (%)
  Patients with Dysgeusia, Grade 2: 4 (5) no. (%)
  Patients with Dysgeusia, Grade ≥3: 0 no. (%)
  Patients with Dyspepsia, Any grade: 9 (12) no. (%)
  Patients with Dyspepsia, Grade 1: 6 (8) no. (%)
  Patients with Dyspepsia, Grade 2: 3 (4) no. (%)
  Patients with Dyspepsia, Grade ≥3: 0 no. (%)
  Patients with Dyspnea, Any grade: 6 (7) no. (%)
  Patients with Dyspnea, Grade 1: 1 (1) no. (%)
  Patients with Dyspnea, Grade 2: 3 (4) no. (%)
  Patients with Dyspnea, Grade ≥3: 2 (3) no. (%)
  Patients with Fatigue, Any grade: 20 (26) no. (%)
  Patients with Fatigue, Grade 1: 8 (10) no. (%)
  Patients with Fatigue, Grade 2: 8 (10) no. (%)
  Patients with Fatigue, Grade ≥3: 4 (5) no. (%)
  Patients with Hand-foot syndrome, Any grade: 13 (17) no. (%)
  Patients with Hand-foot syndrome, Grade 1: 4 (5) no. (%)
  Patients with Hand-foot syndrome, Grade 2: 9 (12) no. (%)
  Patients with Hand-foot syndrome, Grade ≥3: 0 no. (%)
  Patients with Hematuria, Any grade: 6 (8) no. (%)
  Patients with Hematuria, Grade 1: 5 (6) no. (%)
  Patients with Hematuria, Grade 2: 0 no. (%)
  Patients with Hematuria, Grade ≥3: 1 (1) no. (%)
  Patients with Hyperphosphatemia, Any grade: 52 (67) no. (%)
  Patients with Hyperphosphatemia, Grade 1: 44 (56) no. (%)
  Patients with Hyperphosphatemia, Grade 2: 8 (10) no. (%)
  Patients with Hyperphosphatemia, Grade ≥3: 0 no. (%)
  Patients with Hypomagnesemia, Any grade: 6 (8) no. (%)
  Patients with Hypomagnesemia, Grade 1: 6 (8) no. (%)
  Patients with Hypomagnesemia, Grade 2: 0 no. (%)
  Patients with Hypomagnesemia, Grade ≥3: 0 no. (%)
  Patients with Hyponatremia, Any grade: 7 (9) no. (%)
  Patients with Hyponatremia, Grade 1: 2 (3) no. (%)
  Patients with Hyponatremia, Grade 2: 0 no. (%)
  Patients with Hyponatremia, Grade ≥3: 5 (6) no. (%)
  Patients with Insomnia, Any grade: 8 (10) no. (%)
  Patients with Insomnia, Grade 1: 4 (5) no. (%)
  Patients with Insomnia, Grade 2: 2 (3) no. (%)
  Patients with Insomnia, Grade ≥3: 2 (3) no. (%)
  Patients with Lacrimation increased, Any grade: 13 (17) no. (%)
  Patients with Lacrimation increased, Grade 1: 10 (13) no. (%)
  Patients with Lacrimation increased, Grade 2: 3 (4) no. (%)
  Patients with Lacrimation increased, Grade ≥3: 0 no. (%)
  Patients with Nail dystrophy, Any grade: 7 (9) no. (%)
  Patients with Nail dystrophy, Grade 1: 6 (8) no. (%)
  Patients with Nail dystrophy, Grade 2: 1 (1) no. (%)
  Patients with Nail dystrophy, Grade ≥3: 0 no. (%)
  Patients with Nausea, Any grade: 16 (21) no. (%)
  Patients with Nausea, Grade 1: 11 (14) no. (%)
  Patients with Nausea, Grade 2: 4 (5) no. (%)
  Patients with Nausea, Grade ≥3: 1 (1) no. (%)
  Patients with Onycholysis, Any grade: 13 (17) no. (%)
  Patients with Onycholysis, Grade 1: 2 (3) no. (%)
  Patients with Onycholysis, Grade 2: 6 (8) no. (%)
  Patients with Onycholysis, Grade ≥3: 5 (6) no. (%)
  Patients with Onychomadesis, Any grade: 8 (10) no. (%)
  Patients with Onychomadesis, Grade 1: 2 (3) no. (%)
  Patients with Onychomadesis, Grade 2: 6 (8) no. (%)
  Patients with Onychomadesis, Grade ≥3: 0 no. (%)
  Patients with Oropharyngeal pain, Any grade: 8 (10) no. (%)
  Patients with Oropharyngeal pain, Grade 1: 5 (6) no. (%)
  Patients with Oropharyngeal pain, Grade 2: 3 (4) no. (%)
  Patients with Oropharyngeal pain, Grade ≥3: 0 no. (%)
  Patients with Pain in extremity, Any grade: 9 (12) no. (%)
  Patients with Pain in extremity, Grade 1: 2 (3) no. (%)
  Patients with Pain in extremity, Grade 2: 6 (8) no. (%)
  Patients with Pain in extremity, Grade ≥3: 1 (1) no. (%)
  Patients with Paronychia, Any grade: 12 (15) no. (%)
  Patients with Paronychia, Grade 1: 2 (3) no. (%)
  Patients with Paronychia, Grade 2: 10 (13) no. (%)
  Patients with Paronychia, Grade ≥3: 0 no. (%)
  Patients with Peripheral edema, Any grade: 6 (8) no. (%)
  Patients with Peripheral edema, Grade 1: 2 (3) no. (%)
  Patients with Peripheral edema, Grade 2: 3 (4) no. (%)
  Patients with Peripheral edema, Grade ≥3: 1 (1) no. (%)
  Patients with Pyrexia, Any grade: 14 (18) no. (%)
  Patients with Pyrexia, Grade 1: 8 (10) no. (%)
  Patients with Pyrexia, Grade 2: 3 (4) no. (%)
  Patients with Pyrexia, Grade ≥3: 3 (4) no. (%)
  Patients with Retinal detachment, Any grade: 8 (10) no. (%)
  Patients with Retinal detachment, Grade 1: 5 (6) no. (%)
  Patients with Retinal detachment, Grade 2: 3 (4) no. (%)
  Patients with Retinal detachment, Grade ≥3: 0 no. (%)
  Patients with Stomatitis, Any grade: 33 (42) no. (%)
  Patients with Stomatitis, Grade 1: 13 (17) no. (%)
  Patients with Stomatitis, Grade 2: 13 (17) no. (%)
  Patients with Stomatitis, Grade ≥3: 7 (9) no. (%)
  Patients with Urinary tract infection, Any grade: 13 (17) no. (%)
  Patients with Urinary tract infection, Grade 1: 0 no. (%)
  Patients with Urinary tract infection, Grade 2: 9 (12) no. (%)
  Patients with Urinary tract infection, Grade ≥3: 4 (5) no. (%)
  Patients with Vision blurred, Any grade: 5 (6) no. (%)
  Patients with Vision blurred, Grade 1: 3 (4) no. (%)
  Patients with Vision blurred, Grade 2: 1 (1) no. (%)
  Patients with Vision blurred, Grade ≥3: 1 (1) no. (%)
  Patients with Vomiting, Any grade: 11 (14) no. (%)
  Patients with Vomiting, Grade 1: 9 (12) no. (%)
  Patients with Vomiting, Grade 2: 2 (3) no. (%)
  Patients with Vomiting, Grade ≥3: 0 no. (%)
  Patients with Weight decreased, Any grade: 8 (10) no. (%)
  Patients with Weight decreased, Grade 1: 4 (5) no. (%)
  Patients with Weight decreased, Grade 2: 2 (3) no. (%)
  Patients with Weight decreased, Grade ≥3: 2 (3) no. (%)
  Treatment-related adverse event: Alopecia, Any grade: 8 (10) no. (%)
  Treatment-related adverse event: Alopecia, Grade 1: 8 (10) no. (%)
  Treatment-related adverse event: Alopecia, Grade 2: 0 no. (%)
  Treatment-related adverse event: Alopecia, Grade ≥3: 0 no. (%)
